Results as given in the supplement of paper PMC11451515.

System: NOMO1
Assay: cell viability relative to DMSO control; higher = less cytotoxic
Settings: 48 h
Method in brief: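 In 1536-well plates, 5 μl of leukemia cells were seeded per well: 500 cells/well for NOMO1 or SEM and 1000 cells/well for P12-Ichikawa. Each line had first been adapted for at least four passages in each medium. Library compounds in DMSO were pin-dosed at 11 threefold concentrations between 47 μM and 0.79 nM, and CellTiter-Glo One luminescence was read after 48 h at 37°C. Viability is a per-plate percentage relative to DMSO wells, with cell-free wells as background.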

[1] = HPLM + 10% dialyzed FBS, 0.000781 µM
[2] = HPLM + 10% dialyzed FBS, 0.00234 µM
[3] = HPLM + 10% dialyzed FBS, 0.00702 µM
[4] = HPLM + 10% dialyzed FBS, 0.0211 µM
[5] = HPLM + 10% dialyzed FBS, 0.0632 µM
[6] = HPLM + 10% dialyzed FBS, 0.19 µM
[7] = HPLM + 10% dialyzed FBS, 0.569 µM
[8] = HPLM + 10% dialyzed FBS, 1.71 µM
[9] = HPLM + 10% dialyzed FBS, 5.12 µM
[10] = HPLM + 10% dialyzed FBS, 15.4 µM
[11] = HPLM + 10% dialyzed FBS, 46.1 µM
[12] = RPMI 5 mM glucose + 10% FBS, 0.000781 µM
[13] = RPMI 5 mM glucose + 10% FBS, 0.00234 µM
[14] = RPMI 5 mM glucose + 10% FBS, 0.00702 µM
[15] = RPMI 5 mM glucose + 10% FBS, 0.0211 µM
[16] = RPMI 5 mM glucose + 10% FBS, 0.0632 µM
[17] = RPMI 5 mM glucose + 10% FBS, 0.19 µM
[18] = RPMI 5 mM glucose + 10% FBS, 0.569 µM
[19] = RPMI 5 mM glucose + 10% FBS, 1.71 µM
[20] = RPMI 5 mM glucose + 10% FBS, 5.12 µM
[21] = RPMI 5 mM glucose + 10% FBS, 15.4 µM
[22] = RPMI 5 mM glucose + 10% FBS, 46.1 µM
[23] = RPMI 5 mM glucose + 10% dialyzed FBS, 0.000781 µM
[24] = RPMI 5 mM glucose + 10% dialyzed FBS, 0.00234 µM
[25] = RPMI 5 mM glucose + 10% dialyzed FBS, 0.00702 µM
[26] = RPMI 5 mM glucose + 10% dialyzed FBS, 0.0211 µM
[27] = RPMI 5 mM glucose + 10% dialyzed FBS, 0.0632 µM
[28] = RPMI 5 mM glucose + 10% dialyzed FBS, 0.19 µM
[29] = RPMI 5 mM glucose + 10% dialyzed FBS, 0.569 µM
[30] = RPMI 5 mM glucose + 10% dialyzed FBS, 1.71 µM
[31] = RPMI 5 mM glucose + 10% dialyzed FBS, 5.12 µM
[32] = RPMI 5 mM glucose + 10% dialyzed FBS, 15.4 µM
[33] = RPMI 5 mM glucose + 10% dialyzed FBS, 46.1 µM

SMILES | cell viability [1] | cell viability [2] | cell viability [3] | cell viability [4] | cell viability [5] | cell viability [6] | cell viability [7] | cell viability [8] | cell viability [9] | cell viability [10] | cell viability [11] | cell viability [12] | cell viability [13] | cell viability [14] | cell viability [15] | cell viability [16] | cell viability [17] | cell viability [18] | cell viability [19] | cell viability [20] | cell viability [21] | cell viability [22] | cell viability [23] | cell viability [24] | cell viability [25] | cell viability [26] | cell viability [27] | cell viability [28] | cell viability [29] | cell viability [30] | cell viability [31] | cell viability [32] | cell viability [33]
Cc1noc(-c2ccc(CSCCC(=O)O)cc2)c1NC(=O)OC(C)c1ccccc1Cl (configuration not stated) | 92.3% | 89.9% | 105% | 104% | 99.8% | 97.1% | 95.6% | 97% | 113% | 111% | 95.7% | 85.7% | 97.5% | 99% | 89.6% | 109% | 95.4% | 102% | 100% | 95.5% | 110% | 105% | 79% | 99.1% | 87.3% | 86.3% | 99.1% | 92.2% | 99.5% | 95.8% | 100% | 104% | 107%
Cc1ncc([N+](=O)[O-])n1CC(C)O (configuration not stated) | 96.1% | 100% | 117% | 114% | 119% | 110% | 111% | 116% | 117% | 120% | 108% | 100% | 123% | 106% | 106% | 113% | 118% | 132% | 117% | 117% | 105% | 113% | 101% | 107% | 95.3% | 96.4% | 113% | 116% | 110% | 110% | 115% | 115% | 101%
NC(=O)c1ncn([C@@H]2O[C@H](CO)[C@@H](O)[C@H]2O)c1O | – | – | – | – | – | – | – | – | – | – | – | 122% | 125% | 114% | 118% | 114% | 136% | 129% | 127% | 112% | 112% | 117% | 122% | 127% | 115% | 113% | 106% | 120% | 118% | 103% | 115% | 118% | 112%
O=c1[nH]c(=O)n(C2CCCO2)cc1F (configuration not stated) | – | – | – | – | – | – | – | – | – | – | – | 10.4% | 124% | 108% | 116% | 105% | 131% | 106% | 110% | 116% | 111% | 109% | – | – | – | – | – | – | – | – | – | – | –
COc1cc(O)c2c(c1)C(=O)c1cc(C)cc(O)c1C2=O | – | – | – | – | – | – | – | – | – | – | – | 107% | 119% | 111% | 115% | 102% | 113% | 101% | 110% | 105% | 92.3% | 31.2% | 115% | 114% | 110% | 110% | 120% | 118% | 109% | 119% | 120% | 85.4% | 24.3%
Cn1cc(C[C@@H](N)C(=O)O)c2ccccc21 | 107% | 106% | 108% | 106% | 92.4% | 111% | 100% | 101% | 101% | 90.8% | 94.9% | 90.4% | 90.7% | 96.5% | 107% | 89.6% | 95.1% | 95.6% | 95.5% | 92.6% | 97.9% | 81.2% | 90% | 90.1% | 93.4% | 94% | 101% | 98.9% | 93.8% | 88.9% | 93.3% | 87% | 76.7%
COc1cc(N2CCC(N(C)C)CC2)ccc1Nc1ncc(Cl)c(Nc2ccccc2P(C)(C)=O)n1 | – | – | – | – | – | – | – | – | – | – | – | 123% | 116% | 130% | 118% | 124% | 115% | 111% | 102% | 21.3% | 23.8% | 23.2% | 115% | 110% | 128% | 117% | 123% | 124% | 107% | 94.7% | 31.4% | 21.3% | 27.6%
Cc1nc(Nc2n[nH]c3c2CN(C(=O)N[C@H](CN(C)C)c2ccccc2)C3(C)C)c2sccc2n1 | 89.4% | 82.7% | 70.7% | 74.1% | 65.7% | 53.8% | 54.3% | 40.2% | 41.2% | 23.1% | 2.58% | 82.6% | 85% | 91.1% | 82.6% | 71.8% | 54.2% | 53.2% | 40.5% | 38.7% | 25.6% | 2.97% | 80.3% | 86.9% | 78.3% | 72.6% | 55.8% | 58% | 60.1% | 38.9% | 40.9% | 31% | 2.28%
O=C(Nc1cccnn1)N1CCC(=Cc2cccc(Oc3ccc(C(F)(F)F)cn3)c2)CC1 | 72.8% | 98.3% | 109% | 47.4% | 122% | 117% | 113% | 124% | 110% | 102% | 110% | 83.4% | 98.3% | 96.3% | 21.7% | 90.8% | 112% | 91.6% | 97.7% | 98.1% | 96.2% | 94.2% | 91% | 85.3% | 94.4% | 75.4% | 103% | 97.4% | 109% | 106% | 96.5% | 103% | 100%
